Laboratory results from ChEMBL document CHEMBL5055660, “In vitro activity of N-phenyl-1,10-phenanthroline-2-amines against tachyzoites and bradyzoites of Toxoplasma gondii” (Bioorg Med Chem, 2021).
The source made the active and inactive calls. The calls are words filed in the database; no cut-off is given here.

Key:
[1] = tested on: Toxoplasma gondii; experiment: (§1) Anti-tachyzoite activity against RFP-expressing Toxoplasma gondii RH Type 1 infected in NHDF cells assessed as destruction of host cells at 1.25 uM incubated for 96 hrs followed by removal of medium containing compounds and subsequent addition of fresh medium without compounds and measured after 8 days by crystal violet staining based optical microscopic analysis; assay type: functional, organism-based
[2] = Cytotoxicity against NHDF cells assessed as reduction in cell viability measured after 96 hrs by MTS assay; assay type: cell-based; conditions: human
[3] = tested on: Toxoplasma gondii; experiment: Anti-tachyzoite activity against RFP-expressing Toxoplasma gondii RH Type 1 infected in NHDF cells assessed as inhibition of parasite proliferation measured after 72 hrs by fluorescence plate reader; assay type: functional; conditions: RH Type 1, NHDF, read-out: ED50 (the source's name)
[4] = tested on: Toxoplasma gondii; experiment: Anti-bradyzoite activity against Toxoplasma gondii ESG reporter strain infected in NHDF cells assessed as increase in BAG-positive vacuole number at 1.25 uM pretreated with PYR for 3 days followed by compound treatment and further incubated for 4 days; assay type: functional, organism-based; conditions: time 4.0 day
[5] = tested on: Toxoplasma gondii; experiment: as §1, with “plaque formation” for “destruction of host cells”, “0.625” for “1.25”; assay type: functional, organism-based
[6] = tested on: Toxoplasma gondii; experiment: Anti-tachyzoite activity against RFP-expressing Toxoplasma gondii RH Type 1 infected in NHDF cells assessed as inhibition of parasite proliferation measured after 96 hrs by fluorescence plate reader; assay type: functional; conditions: RH Type 1, NHDF, read-out: ED50 (the source's name)
[7] = Selectivity index, ratio of CC50 for cytotoxicity against NHDF cells to ED50 for Anti-tachyzoite activity against RFP-expressing Toxoplasma gondii RH Type 1 infected in NHDF cells; assay type: toxicity, cell-based; conditions: human; read-out: Selectivity Index
[8] = tested on: Toxoplasma gondii; experiment: Anti-bradyzoite activity against Toxoplasma gondii ESG reporter stain infected in NHDF cells assessed as parasitic infection at 1.25 uM measured after 60 days by optical microscopic analysis; assay type: functional, organism-based; conditions: time 60.0 day
[9] = tested on: Toxoplasma gondii; experiment: (§2) Anti-tachyzoite activity against RFP-expressing Toxoplasma gondii RH Type 1 infected in NHDF cells assessed as inhibition of plaque formation at 1.25 uM when host cells pretreated for 3 days followed by infection and removal of medium containing compounds and subsequent addition of fresh medium without compounds and measured after 7 days by crystal violet staining based optical microscopic analysis; assay type: functional, organism-based; conditions: time 3.0 day
[10] = tested on: Toxoplasma gondii; experiment: Induction of vacuole formation in Toxoplasma gondii ESG reporter strain infected in NHDF cells assessed as increase in BAG positive vacuole number pretreated with PYR for 3 days followed by compound treatment and further incubated for 4 days; assay type: functional, organism-based; conditions: time 4.0 day
[11] = tested on: Toxoplasma gondii; experiment: Anti-bradyzoite activity against Toxoplasma gondii ESG reporter strain infected in NHDF cells assessed as induction of cyst formation measured after 5 days under alkaline condition by TEM analysis; assay type: functional, organism-based; conditions: time 5.0 day
[12] = tested on: Toxoplasma gondii; experiment: as §1, with “inhibition” for “destruction”, “plaque formation” for “host cells”, “0.625” for “1.25”; assay type: functional, organism-based
[13] = tested on: Toxoplasma gondii; experiment: as §1, with “inhibition” for “destruction”, “plaque formation” for “host cells”; assay type: functional, organism-based
[14] = tested on: Toxoplasma gondii; experiment: Anti-bradyzoite activity against Toxoplasma gondii ESG reporter strain infected in NHDF cells assessed as morphological alteration at 1.25 uM measured after 5 days under alkaline condition by TEM analysis; assay type: functional, organism-based; conditions: time 5.0 day
[15] = tested on: Toxoplasma gondii; experiment: Anti-bradyzoite activity against Toxoplasma gondii ESG reporter stain infected in NHDF cells assessed as viable cells recovery causing host cell lysis at 0.625 uM measured after 15 days by optical microscopic analysis; assay type: functional, organism-based; conditions: time 15.0 day
[16] = tested on: Toxoplasma gondii; experiment: as §1, with “as viable cells recovery causing” for “as destruction of”, “host cell lysis” for “host cells”, “at 5” for “at 1.25”, “analysis relative to control” for “analysis”; assay type: functional
[17] = tested on: Toxoplasma gondii; experiment: Anti-bradyzoite activity against Toxoplasma gondii ESG reporter strain infected in NHDF cells assessed as cell lysis measured after 21 days; assay type: functional, organism-based; conditions: time 21.0 day
[18] = tested on: Toxoplasma gondii; experiment: Induction of stage conversion in Toxoplasma gondii ESG reporter strain at 1 uM; assay type: functional, organism-based
[19] = tested on: Toxoplasma gondii; experiment: Anti-bradyzoite activity against Toxoplasma gondii ESG reporter stain infected in NHDF cells assessed as parasite proliferation at 10 uM measured after 30 days by optical microscopic analysis; assay type: functional, organism-based; conditions: time 30.0 day
[20] = tested on: Toxoplasma gondii; experiment: as §1, with “1” for “1.25”; assay type: functional, organism-based
[21] = tested on: Toxoplasma gondii; experiment: Induction of morphological changes in Toxoplasma gondii ESG reporter strain at 10 uM; assay type: functional, organism-based
[22] = tested on: Toxoplasma gondii; experiment: as §1, with “inhibition” for “destruction”, “plaque formation” for “host cells”, “10” for “1.25”; assay type: functional, organism-based
[23] = tested on: Toxoplasma gondii; experiment: Anti-bradyzoite activity against Toxoplasma gondii ESG reporter stain infected in NHDF cells assessed as viable cells recovery causing host cell lysis at 1 uM measured after 15 days by optical microscopic analysis; assay type: functional, organism-based; conditions: time 15.0 day
[24] = tested on: Toxoplasma gondii; experiment: Anti-bradyzoite activity against Toxoplasma gondii ESG reporter strain infected in NHDF cells assessed as cell lysis at 2 uM measured after 21 days; assay type: functional, organism-based; conditions: time 21.0 day
[25] = tested on: Toxoplasma gondii; experiment: as §1, with “2.5” for “1.25”; assay type: functional, organism-based
[26] = tested on: Toxoplasma gondii; experiment: as §1, with “5” for “1.25”; assay type: functional, organism-based
[27] = tested on: Toxoplasma gondii; experiment: Anti-bradyzoite activity against Toxoplasma gondii ESG reporter strain infected in NHDF cells assessed as morphological alteration at 0.625 uM measured after 5 days under alkaline condition by TEM analysis; assay type: functional, organism-based; conditions: time 5.0 day
[28] = tested on: Toxoplasma gondii; experiment: as §1, with “inhibition” for “destruction”, “plaque formation” for “host cells”, “0.312” for “1.25”; assay type: functional, organism-based
[29] = tested on: Toxoplasma gondii; experiment: as §2, with “0.312” for “1.25”; assay type: functional, organism-based; conditions: time 3.0 day
[30] = tested on: Toxoplasma gondii; experiment: Anti-bradyzoite activity against Toxoplasma gondii ESG reporter stain infected in NHDF cells assessed as parasite proliferation at 0.325 uM measured after 30 days by optical microscopic analysis; assay type: functional, organism-based; conditions: time 30.0 day
[31] = tested on: Toxoplasma gondii; experiment: Anti-bradyzoite activity against Toxoplasma gondii ESG reporter stain infected in NHDF cells assessed as parasitic infection at 0.625 uM measured after 60 days by optical microscopic analysis; assay type: functional, organism-based; conditions: time 60.0 day
[32] = tested on: Toxoplasma gondii; experiment: as §1, with “plaque formation” for “destruction of host cells”, “0.156” for “1.25”; assay type: functional, organism-based
[33] = tested on: Toxoplasma gondii; experiment: Induction of cytoplasmic vacuolization in RFP-expressing Toxoplasma gondii RH Type 1 at 156 nM after 72 hrs by TEM analysis; assay type: functional, organism-based
[34] = tested on: Toxoplasma gondii; experiment: Induction of mitochondria swelling in RFP-expressing Toxoplasma gondii RH Type 1 at 156 nM after 72 hrs by TEM analysis; assay type: functional, organism-based; conditions: NHDF
[35] = tested on: Toxoplasma gondii; experiment: Induction of nuclear fragmentation in RFP-expressing Toxoplasma gondii RH Type 1 at 156 nM after 72 hrs by TEM analysis; assay type: functional, organism-based; conditions: NHDF
[36] = tested on: Toxoplasma gondii; experiment: Anti-bradyzoite activity against Toxoplasma gondii ESG reporter strain infected in NHDF cells assessed as increase in BAG-positive vacuole number at 0.625 uM pretreated with PYR for 3 days followed by compound treatment and further incubated for 4 days; assay type: functional, organism-based; conditions: time 4.0 day
[37] = tested on: Toxoplasma gondii; experiment: Induction of cell death in RFP-expressing Toxoplasma gondii RH Type 1 assessed as DNA fragmentation at 156 nM after 72 hrs by immunoblotting analysis; assay type: functional, organism-based
[38] = tested on: Toxoplasma gondii; experiment: Anti-bradyzoite activity against Toxoplasma gondii ESG reporter strain infected in NHDF cells assessed as induced cyst formation at 2 uM measured after 5 days under alkaline condition by TEM analysis; assay type: functional, organism-based; conditions: time 5.0 day
[39] = tested on: Toxoplasma gondii; experiment: Anti-bradyzoite activity against Toxoplasma gondii ESG reporter strain infected in NHDF cells assessed as increase in BAG-positive vacuole number at 2 uM pretreated with PYR for 3 days followed by compound treatment and further incubated for 4 days; assay type: functional, organism-based; conditions: time 4.0 day
[40] = tested on: Toxoplasma gondii; experiment: Anti-bradyzoite activity against Toxoplasma gondii ESG reporter stain infected in NHDF cells assessed as viable cells recovery causing host cell lysis at 2 uM measured after 15 days by optical microscopic analysis; assay type: functional, organism-based; conditions: time 15.0 day
[41] = tested on: Toxoplasma gondii; experiment: Induction of stage conversion in Toxoplasma gondii ESG reporter strain at 2 uM; assay type: functional, organism-based
[42] = tested on: Toxoplasma gondii; experiment: as §1, with “plaque formation” for “destruction of host cells”, “4” for “1.25”; assay type: functional, organism-based
[43] = tested on: Toxoplasma gondii; experiment: Induction of stage conversion in Toxoplasma gondii ESG reporter strain at 4 uM; assay type: functional, organism-based
[44] = tested on: Toxoplasma gondii; experiment: Anti-bradyzoite activity against Toxoplasma gondii ESG reporter stain infected in NHDF cells assessed as parasite proliferation at 4 uM measured after 30 days by optical microscopic analysis; assay type: functional, organism-based; conditions: time 30.0 day
[45] = tested on: Toxoplasma gondii; experiment: as §1, with “plaque formation” for “destruction of host cells”, “2” for “1.25”; assay type: functional, organism-based

SMILES | CC50 at 96 h [2] [nM] | EC50 [3] [nM] | Activity [4] | EC50 [6] [nM] | selectivity ratio [7] | Activity [8] | Activity [10] | Activity [13] | further results
Fc1ccc(Nc2ccc3ccc4cccnc4c3n2)cc1 | 26900 | 250 | Active | 310 | 96 | inactive | – | – | Activity [1]: Active; Activity [5]: Active
Clc1cccc(Nc2ccc3ccc4cccnc4c3n2)c1 | 24900 | 360 | Active | 580 | 42 | inactive | Active | Active | Activity [9]: Active; Activity [11]: Active; Activity [12]: Active; Activity [14]: Active; Activity [15]: Active
COc1cccc(Nc2ccc3ccc4cccnc4c3n2)c1 | 37700 | 250 | Active | 340 | 111 | inactive | – | Active | Activity [9]: Active; Activity [5]: Active
N#Cc1ccc(Nc2ccc3ccc4cccnc4c3n2)cc1 | 31000 | 1060 | – | 1660 | 21 | – | – | – | Activity [16]: 100%; Activity [17]: Active
COc1ccc(Nc2ccc3ccc4cccnc4c3n2)cc1 | 18400 | 310 | Active | 290 | 63 | inactive | – | Active | Activity [5]: Active; Activity [15]: Active
O=C1C(O)=C([C@H]2CC[C@H](c3ccc(Cl)cc3)CC2)C(=O)c2ccccc21 | – | – | – | – | – | – | – | – | Activity [18]: Active; Activity [19]: Active; Activity [20]: Active; Activity [21]: Active; Activity [22]: Active; Activity [23]: Active; Activity [17]: Active
c1cnc2c(c1)ccc1cccnc12 [PHENANTHROLINE] | 70200 | 2010 | – | 2280 | 31 | – | – | – | Activity [24]: Active
Fc1cccc(Nc2ccc3ccc4cccnc4c3n2)c1 | 24900 | 270 | Active | 330 | 75 | inactive | Active | Active | Activity [9]: Active; Activity [11]: Active; Activity [12]: Active; Activity [14]: Active
N#Cc1cccc(Nc2ccc3ccc4cccnc4c3n2)c1 | 30500 | 240 | – | 310 | 98 | – | Active | – | Activity [25]: Active; Activity [1]: Active; Activity [26]: Active; Activity [17]: Active
c1ccc2c(Nc3ccc4ccc5cccnc5c4n3)cccc2c1 | 11400 | 240 | – | 150 | 114 | – | Active | – | Activity [27]: Active; Activity [28]: Active; Activity [29]: Active; Activity [30]: Active; Activity [31]: inactive; Activity [32]: Active; Activity [11]: Active; Activity [33]: Active; Activity [34]: Active; Activity [35]: Active; Activity [36]: Active; Activity [37]: Active
CCc1nc(N)nc(N)c1-c1ccc(Cl)cc1 | – | – | – | – | – | – | – | – | Activity [38]: Active; Activity [39]: Active; Activity [40]: Active; Activity [41]: Active; Activity [42]: Active; Activity [43]: Active; Activity [24]: Active; Activity [18]: Active; Activity [44]: Active; Activity [20]: Active; Activity [45]: Active
c1ccc(Nc2ccc3ccc4cccnc4c3n2)cc1 | 34600 | 530 | – | 670 | 73 | – | – | Active | –
